This passage reports Km results from paper PMC4434416, “Purification and biochemical characterization of a newly produced yellow laccase from Lentinus squarrosulus MR13” (3 Biotech, 2014).

The assay deals with yellow laccase. Conditions: 35 °C; pH of the kinetic assay not stated; printed ABTS range 40–600 mM.

For the compound `CCn1c(=NN=c2sc3cc(S(=O)(=O)O)ccc3n2CC)sc2cc(S(=O)(=O)O)ccc21` [ABTS, 2,2′-Azinobis-(3-ethylbenzothiazoline-6-sulfonic acid)], the Km (in general, the substrate concentration at which the rate is half of its maximum) is 71.4 µM.
